ChEMBL document CHEMBL1156890, “Semi-synthetic aristolactams--inhibitors of CDK2 enzyme” (Bioorg Med Chem Lett, 2010)
The source made the active and inactive calls. The calls are words filed in the database; no cut-off is given here.

Experiments:
[1] = Inhibition of MAPK
[2] = tested on: MCF7; test: Antiproliferative activity against human MCF7 cells by clonogenicity assay; format: functional, cell-based
[3] = target: T1, Aurora kinase A (Homo sapiens, UniProt O14965); test: Inhibition of AUR2
T1 sequence (O14965 whole entry): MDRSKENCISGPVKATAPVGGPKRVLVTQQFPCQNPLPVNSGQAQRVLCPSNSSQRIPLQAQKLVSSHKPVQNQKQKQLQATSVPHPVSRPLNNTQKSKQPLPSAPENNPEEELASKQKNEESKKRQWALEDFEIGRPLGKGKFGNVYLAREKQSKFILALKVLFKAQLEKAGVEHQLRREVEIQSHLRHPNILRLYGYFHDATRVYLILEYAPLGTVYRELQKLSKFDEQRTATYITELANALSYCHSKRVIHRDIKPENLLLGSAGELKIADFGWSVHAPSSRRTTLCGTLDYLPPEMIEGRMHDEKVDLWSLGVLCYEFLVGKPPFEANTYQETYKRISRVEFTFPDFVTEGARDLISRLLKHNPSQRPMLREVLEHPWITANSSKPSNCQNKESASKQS

[4] = target: Cyclin-dependent kinase 1 (Homo sapiens, UniProt P06493); test: Inhibition of CDC2
[5] = target: Cyclin-dependent kinase 4 (Homo sapiens, UniProt P11802); test: Inhibition of CDK4
[6] = tested on: MCF7; test: Antiproliferative activity against human MCF7 cells by soft agar growth assay; format: functional, cell-based
[7] = target: T2, Cyclin-dependent kinase 2 (Homo sapiens, UniProt P24941); test: Inhibition of CDK2
[8] = target: T2, Cyclin-dependent kinase 2; test: Inhibition of CDK2 at 50 uM

Chain of Cyclin-dependent kinase 4 (P11802 whole entry): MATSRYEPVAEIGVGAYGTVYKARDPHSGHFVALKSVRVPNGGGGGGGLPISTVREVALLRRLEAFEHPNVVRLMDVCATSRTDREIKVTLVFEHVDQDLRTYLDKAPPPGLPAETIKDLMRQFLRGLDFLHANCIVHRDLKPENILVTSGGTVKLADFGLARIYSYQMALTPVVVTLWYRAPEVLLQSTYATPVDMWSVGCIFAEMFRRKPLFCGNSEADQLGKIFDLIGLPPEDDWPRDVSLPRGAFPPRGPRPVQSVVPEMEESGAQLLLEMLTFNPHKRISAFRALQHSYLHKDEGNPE
Chain of Cyclin-dependent kinase 1 (P06493 whole entry): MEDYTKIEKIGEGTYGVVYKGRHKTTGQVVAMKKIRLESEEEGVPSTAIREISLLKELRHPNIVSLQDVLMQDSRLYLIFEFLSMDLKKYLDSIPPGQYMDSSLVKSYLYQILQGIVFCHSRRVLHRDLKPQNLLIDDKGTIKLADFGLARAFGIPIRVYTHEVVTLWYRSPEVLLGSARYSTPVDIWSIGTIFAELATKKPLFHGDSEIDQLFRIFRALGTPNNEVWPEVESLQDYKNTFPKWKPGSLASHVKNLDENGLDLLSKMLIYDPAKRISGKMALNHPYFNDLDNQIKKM

Compound | IC50 [7] [µM] | Activity [8] | also measured
COc1c(O)cc2c3c(cc4ccc(O)cc4c13)NC2=O [ARISTOLACTAM AIIIA] |  |  | IC50 [1]: > 50 µM; IC50 [2]: 3 µM; IC50 [3]: 5 µM; IC50 [4]: 0.2 µM; IC50 [5]: 2 µM; IC50 [6]: > 0.01 µM
COc1ccc2nc3[nH]nc(C)c3c(OC)c2c1 | 0.02 |  | IC50 [1]: > 50 µM; IC50 [2]: 3.5 µM; IC50 [3]: 5 µM; IC50 [4]: 0.2 µM; IC50 [5]: 2 µM; IC50 [6]: 2 µM
COc1cccc2c1c(OC)c([N+](=O)[O-])c1c(C(=O)O)cc3c(c12)OCO3 [7-METHOXY ARISTOLOCHIC ACID A] | > 20 | inactive | 
COc1cc2c(cc1OC)-c1c3c(cc4c1[C@H](C2)N(C)CC4)OCO3 [DICENTRINE] | > 50 |  | 
COc1c(O)ccc2c1cc1c3c(cc4c(c32)OCO4)C(=O)N1 | 2.9 |  | 
O=C(O)c1cc2c(c3c1c([N+](=O)[O-])cc1ccc(O)cc13)OCO2 [ARISTOLOCHIC ACID C] | 30 | inactive | 
COc1cccc2c1c(Cl)c([N+](=O)[O-])c1c(C(=O)O)cc(O)c(O)c12 | 16.5 | inactive | 
O=C1Nc2cc3ccccc3c3c(O)c(O)cc1c23 | > 35 | inactive | 
COc1ccc2c(c1O)-c1c(OC)c(OC)cc3c1[C@H](C2)N(C)CC3 [ISOCORYDINE] | > 50 |  | 
COc1cccc2c1cc1c3c(cc(O)c(O)c32)C(=O)N1 | > 35 | inactive | 
COc1ccc2c(c1OC)CC1c3c(cc4c(c3-2)OCO4)CCN1C (stereo unspecified) [CREBANINE] | > 50 |  | 
O=C1Nc2cc3c(O)cccc3c3c4c(cc1c23)OCO4 | 0.035 | inactive | IC50 [1]: 35.3 µM; IC50 [3]: 2.14 µM; IC50 [4]: 0.214 µM; IC50 [5]: 1.42 µM
O=C(O)c1cc2c(c3c1c([N+](=O)[O-])cc1ccccc13)OCO2 [ARISTOLOCHIC ACID II] | > 20 | inactive | 
COc1cc(O)cc2c1cc1c3c(cc4c(c32)OCO4)C(=O)N1 | > 35 | inactive | 
COc1cccc2c1cc1c3c(cc4c(c32)OCO4)C(=O)N1C | > 35 | inactive | 
O=C1Nc2cc3ccc(O)cc3c3c4c(cc1c23)OCO4 | 2.15 |  | 
COc1ccc2c(c1O)-c1c(O)c(OC)cc3c1[C@H](C2)N(C)CC3 [CORYTUBERINE] | > 50 |  | 
COc1c(O)ccc2c1cc([N+](=O)[O-])c1c(C(=O)O)cc3c(c12)OCO3 [7-HYDROXY ARISTOLOCHIC A] | 25 | inactive | 
COc1cc(OC)c2cc([N+](=O)[O-])c3c(C(=O)O)cc4c(c3c2c1)OCO4 [ARISTOLOCHIC ACID IV] | > 20 | inactive | 
COc1cc(O)cc2c1cc([N+](=O)[O-])c1c(C(=O)O)cc3c(c12)OCO3 [ARISTOLOCHIC D] | 25 | inactive | 
O=C1Nc2c(Cl)c3ccccc3c3c(O)c(O)cc1c23 | > 25 | inactive | 
O=C1Nc2cc3c(O)cc(O)cc3c3c4c(cc1c23)OCO4 | > 50 | inactive | 

Compound | IC50 [7] [µM] | Activity [8] | also measured
COc1cc(OC)c2cc3c4c(cc5c(c4c2c1)OCO5)C(=O)N3 | > 15 | inactive | 
O=C(O)c1cc(O)c(O)c2c1c([N+](=O)[O-])cc1ccccc12 | 13.4 | inactive | 
COC1=C[C@]23CCN(C)[C@H](Cc4ccc(OC)c(O)c42)C3=CC1=O [SALUTARIDINE] | > 50 |  | 
O=C1Nc2cc3ccccc3c3c4c(cc1c23)OCO4 [ARISTOLACTAM II] | 15 | inactive | 
COc1ccc2c(cc3c4c(cc5c(c42)OCO5)C(=O)N3)c1OC | > 15 | inactive | 
O=C1Nc2cc3c(O)c(O)ccc3c3c4c(cc1c23)OCO4 | > 30 | inactive | 
O=C(O)c1cc2c(c3c1c([N+](=O)[O-])cc1c(O)cccc13)OCO2 [ARISTOLOCHIC ACID III] | 15 | inactive | 
O=C(O)c1cc(O)c(O)c2c1c([N+](=O)[O-])c(Cl)c1ccccc12 | 18 | inactive | 
COc1cccc2c1c(Cl)c1c3c(cc(O)c(O)c32)C(=O)N1 | 10 | inactive | 
COC1=C[C@@H]2[C@@H]3Cc4ccc(OC)c(O)c4[C@]2(CCN3C)CC1=O [SINOMENINE] | > 50 |  | 
COc1ccc2cc([N+](=O)[O-])c3c(C(=O)O)cc4c(c3c2c1)OCO4 | > 20 | inactive | 
COc1cccc2c1cc([N+](=O)[O-])c1c(C(=O)O)cc(O)c(O)c12 | > 30 | inactive | 
COc1cccc2c1C[C@@H]1c3c(cc4c(c3-2)OCO4)CCN1C [STEPHANINE] | > 50 |  | 
COc1cccc2c1cc1c3c(cc4c(c32)OCO4)C(=O)N1 [ARISTOLACTAM I] | 1.2 |  | 
O=C1Nc2cc3c(O)cccc3c3c(O)c(O)cc1c23 | > 35 | inactive | 
COc1ccc2c(c1OC)CN1CCc3cc4c(cc3C1C2)OCO4 (stereo unspecified) [TETRAHYDROBERBERINE] | > 50 |  | 
COc1cccc2c1cc([N+](=O)[O-])c1c(C(=O)O)cc3c(c12)OCO3 [ARISTOLOCHIC ACID] | > 20 | inactive | 
CN1CCc2cc3c(c4c2[C@H]1Cc1ccccc1-4)OCO3 [ROEMERINE HBR] | > 50 |  | 
COc1cc2c3c(c1O)-c1c(ccc(OC)c1OC)C[C@@H]3N(C)CC2 [CORYDINE] | > 50 |  | 
O=C(O)c1cc(O)c(O)c2c1c([N+](=O)[O-])cc1c(O)cccc12 | 5.7 | inactive | 
CN1C(=O)c2cc3c(c4c2c1cc1c(O)cccc14)OCO3 | > 35 | inactive | 
